Where two headings read alike, the source gives them in different places.

The target in the experiment is T1, RARβ2 (Homo sapiens, UniProt P10826).
T1 construct: expressed in transfected cells
T1 sequence (P10826 1-448 isoform P10826-2): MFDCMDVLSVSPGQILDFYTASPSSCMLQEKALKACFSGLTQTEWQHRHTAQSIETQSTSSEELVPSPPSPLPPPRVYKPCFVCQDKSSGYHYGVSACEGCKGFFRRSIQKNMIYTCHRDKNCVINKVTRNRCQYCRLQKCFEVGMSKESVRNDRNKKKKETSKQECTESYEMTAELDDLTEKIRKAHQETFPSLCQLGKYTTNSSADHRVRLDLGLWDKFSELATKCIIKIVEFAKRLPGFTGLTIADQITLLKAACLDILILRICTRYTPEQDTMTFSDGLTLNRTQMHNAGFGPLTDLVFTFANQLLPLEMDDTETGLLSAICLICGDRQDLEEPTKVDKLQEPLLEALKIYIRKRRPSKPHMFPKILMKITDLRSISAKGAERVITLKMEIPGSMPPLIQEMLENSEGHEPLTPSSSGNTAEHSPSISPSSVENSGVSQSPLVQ
The experiment can be described thus: Receptor Selection and Amplification Technology (R-SAT) functional receptor assay. Type of experiment: cell-based. The text has this:
The functional receptor assay, Receptor Selection and Amplification Technology (R-SAT), was used to investigate the pharmacological properties of known and novel RARβ agonists and antagonists.
Efficacy is relative to the maximal response of the reference ligand, Am-580.

[1] abbreviates: Table 1, efficacy relative to the maximal response of the reference ligand Am-580.
[2] abbreviates: Table 1, efficacy relative to the maximal response of the reference ligand Am-580, read-out: % Eff.
[3] abbreviates: Table 1, read-out: pEC50 (converted).
Where [4] appears, read: Table 2, efficacy relative to the maximal response of the reference ligand Am-580, read-out: % Eff.
[5] abbreviates: Table 2, read-out: pEC50 (converted).
[6] abbreviates: Table 2, efficacy relative to the maximal response of the reference ligand Am-580.

Broadly, the pEC50 is the EC50 on a negative log10 scale, so that one unit is a factor of ten. A high value points to a low EC50. The compound “2-Fluoro-4-octyl[1,1′-biphenyl]-4-carboxylic acid [Compound 38]” had a pEC50 (Table 1) of 6.81. The “% Eff.” value under setting [1] is listed as 70%. Take “4-Heptyl-3-methyl[1,1′-biphenyl]-4-carboxylic acid [Compound 52]”: for the setting “Table 1”, the pEC50 was determined as 6.41. Further, the “% Eff.” value under setting [1] turned out to be 45%. Turning to `CCCCCCCCc1ccc(-c2ccc(C(=O)O)cc2C)cc1` [Compound 1, 2-Methyl-4′-octyl[1,1′-hiphenyl]-4-carboxylic acid], the Emax under setting [2] stood at 39%. In addition, the EC50 under setting [3] is 2.29 nM. Turning to `CCCCCCCCCc1ccc(-c2ccc(C(=O)O)cc2)cc1` [Compound 2, 4′-Nonyl-biphenyl-4-carboxylic acid], the Emax under setting [2] amounted to 126%. The EC50 under setting [3] is 7.94 nM. The compound `CCCCCc1ccc(-c2ccc(C(=O)O)cc2)cc1` [Compound 4] gave a pEC50 (Table 1) of 7.82. Further, the Emax under setting [2] amounted to 44%. On to `CCCCCCCCc1ccc(-c2ccc(C(=O)OCCc3ccccn3)c(F)c2)cc1` [Compound 5, 3-Fluoro-4′-octyl-biphenyl-4-carboxylic acid 2-pyridin-2-yl-ethyl ester], for which, under setting [4], the Emax turned out to be 124%. Also, under setting [5], the EC50 is 16.2 nM. Regarding `CCCCCCCc1ccc(-c2ccc(C(=O)OCCc3ccccn3)c(F)c2)cc1` [Compound 7, 3-Fluoro-4′-heptyl-biphenyl-4-carboxylic acid 2-pyridin-2-yl-ethyl ester], the Emax under setting [4] turned out to be 95%. For the same compound, the EC50 under setting [5] is 19.5 nM. `CCCCCCCc1ccc(-c2ccc(C(=O)O)cc2)cc1` [Compound 9] had a pEC50 (Table 1) of 7.59. In addition, the Emax under setting [2] turned out to be 76%. Take `CCCCCCCc1ccc(-c2ccc(C(=O)O)cc2)cc1` [Compound 10, 4′-Heptyl[1,1′-biphenyl]-4-carboxylic acid]: under setting [1], the “% Eff.” value is given as 64%. Further, the EC50 under setting [3] is 26.3 nM. For the compound `CCCCCCOc1cc(C)c(-c2ccc(C(=O)O)cc2)cc1C` [Compound 11, 4′-(Hexyloxy)-2′,5′-dimethyl[1,1′-biphenyl]-4-carboxylic acid], the Emax under setting [2] turned out to be 78%. Also, the EC50 under setting [3] is 27.5 nM. For `CCCCCCOc1ccc(-c2ccc(C(=O)O)cc2)cc1` [Compound 12], the pEC50 (Table 1) is reported as 7.54. Also, the Emax under setting [2] came out at 72%.

Regarding `CCCCCCNC(=O)COc1nc(-c2ccc(C(=O)O)cc2)sc1C` [Compound 13, 4-(4-Hexylcarbamoylmethoxy-5-methyl-thiazol-2-yl)-benzoic acid], under setting [2], the Emax turned out to be 85%. Also, under setting [3], the EC50 was 41.7 nM. Compound `CCCCCCCCc1ccc(-c2ccc(C(=O)OCCc3ccccn3)cc2)cc1` [Compound 14] yielded a pEC50 (Table 2) of 7.38. Under setting [6], the “% Eff.” value is 93%. In turn, `CCCCCCCCc1ccc(-c2ccc(C(=O)n3cnc(NC(C)=O)n3)cc2)cc1` [Compound 15] yielded a pEC50 (Table 1) of 7.37. Further, under setting [2], the Emax turned out to be 76%.

For the compound `CCCCCCc1ccc(-c2ccc(C(=O)O)cc2)cc1` [Compound 16], the pEC50 (Table 1) was determined as 7.34. Moreover, the Emax under setting [2] was found to be 37%. Consider `CCCCCCCc1ccc(-c2ccc(C(=O)OCc3ccco3)cc2)cc1` [Compound 17, 4′-Heptyl-biphenyl-4-carboxylic acid furan-2-ylmethyl Ester], for which the “% Eff.” value under setting [6] was found to be 33%. In addition, the EC50 under setting [5] was 45.7 nM.

`CCCCOCCOc1ccc(-c2ccc(C(=O)O)cc2)cc1` [Compound 18, 4′-(2-Butoxyethoxy)-[1,1-biphenyl]-4-carboxylic acid]: under setting [2], the Emax was 108%. The EC50 under setting [3] was 47.9 nM. Regarding `CCCCCCCc1ccc(-c2ccc(C(=O)OCCC#N)cc2)cc1` [Compound 19, 4′-Heptyl-biphenyl-4-carboxylic acid 2-cyano-ethyl ester], the Emax under setting [4] is 36%. Moreover, the EC50 under setting [5] was 52.5 nM. On to `CCCCCCCCCCOc1ccc(-c2ccc(C(=O)O)cc2)cc1` [Compound 20], for which, where the note is “Table 1”, the pEC50 is 7.26. Besides, the Emax under setting [2] turned out to be 98%. For `CCCCCCCc1ccc(-c2ccc(C(=O)OCc3ccco3)cc2)cc1` [Compound 21], where the note is “Table 2”, the pEC50 is on record as 7.26. In addition, the “% Eff.” value under setting [6] worked out at 106%. As to `CCCCCCCc1ccc(-c2ccc(C(=O)O)cc2F)cc1` [Compound 22, 2-Fluoro-4′-heptyl[1,1′-biphenyl]-4-carboxylic acid], the Emax under setting [2] is 36%. The EC50 under setting [3] is 57.5 nM. As for `CCCCCCCOc1ccc(-c2ccc(C(=O)OCCC#N)cc2)cc1` [Compound 23, 4′-Heptyloxy-biphenyl-4-carboxylic acid 2-cyano-ethyl ester], under setting [4], the Emax was determined as 46%. For the same compound, the EC50 under setting [5] is 60.3 nM. `CCCCCCCOc1ccc(-c2ccc(C(=O)O)cc2)cc1` [Compound 24] gave a pEC50 (Table 1) of 7.21. For the same compound, the Emax under setting [2] worked out at 58%.

In turn, `CC(C)CCCCOc1ccc(-c2ccc(C(=O)O)cc2)cc1` [Compound 25, 4′-(5-Methyl-hexyloxy)-biphenyl-4-carboxylic acid] showed a pEC50 (Table 1) of 7.20. Moreover, the Emax under setting [2] came out at 65%.

On to `O=C(O)c1ccc(-c2ccc(OCCC=C(C3CC3)C3CC3)cc2)cc1` [Compound 26, 4′[(4,4-Dicyclopropyl-3-butenyl)oxy][1,1-biphenyl]-4-carboxylic acid], for which the “% Eff.” value under setting [1] was found to be 36%. Consider `CCCCOCCOc1nc(-c2ccc(C(=O)O)cc2)sc1C` [Compound 27, 4-[4-(2-Butoxy-ethoxy)-5-methyl-thiazol-2-yl]-benzoic acid], for which the Emax under setting [2] is 95%. Also, under setting [3], the EC50 was 75.9 nM. In the case of `CCCCCCCCc1ccc(-c2ccc(C(=O)OCCc3ccccn3)cc2)cc1` [Compound 28], for the setting “Table 2”, the pEC50 was 7.09. Further, the “% Eff.” value under setting [6] was 70%. Under “Table 1”, `CCCCCCCCc1ccc(-c2ccc(C(=O)Nc3ccc(C)cn3)cc2)cc1` [Compound 29] returned a pEC50 of 7.08. For the same compound, the Emax under setting [2] is 78%. Take `CCCCCCCOc1ccc(-c2ccc(C(=O)OCCc3ccccn3)cc2)cc1` [Compound 30, 4′-Heptyloxy-biphenyl-4-carboxylic acid 2-pyridin-2-yl-ethyl ester]: under setting [4], the Emax was determined as 62%. Also, the EC50 under setting [5] was 91.2 nM. In the case of `CCCCCCCCc1ccc(-c2ccc(C(=O)C(=O)O)cc2)cc1` [Compound 31, (4′-Octyl-biphenyl-4-yl)-oxo-acetic acid], the Emax under setting [2] worked out at 80%. Also, the EC50 under setting [3] was 95.5 nM. Where the note is “Table 1”, `CCCCCCCCOc1ccc(-c2ccc(C(=O)O)cc2)cc1` [Compound 32] displayed a pEC50 of 7.02. For the same compound, the Emax under setting [2] came to 70%. Take `CCCOCCOc1nc(-c2ccc(C(=O)O)cc2)sc1C` [Compound 33, 4-[5-Methyl-4-(2-propoxy-ethoxy)-thiazol-2-yl]-benzoic acid]: under setting [2], the Emax is 98%. The EC50 under setting [3] is 110 nM. For the compound `CCCCCCCCc1ccc(-c2ccc(C(=O)OCCC#N)cc2)cc1` [Compound 34, 4′-Octyl-biphenyl-4-carboxylic acid 2-cyano-ethyl ester], the Emax under setting [4] was determined as 71%. Also, the EC50 under setting [5] is 112 nM. The compound `CCCCCCCCc1ccc(-c2ccc(C(=O)O)cc2)cc1` [Compound 35] gave a pEC50 (Table 1) of 6.94. In addition, the “% Eff.” value under setting [1] is on record as 83%.

Turning to `CCCCCCCc1ccc(-c2ccc(C(=O)O)c(F)c2)cc1` [Compound 36, 3-Fluoro-4′-heptyl[1,1′-biphenyl]-4-carboxylic acid], the Emax under setting [2] was found to be 42%. Besides, under setting [3], the EC50 is 123 nM. For `CCCCCCCc1ccc(-c2ccc(C(=O)NO)cc2)cc1` [Compound 37, 4′-Heptyl-biphenyl-4-carboxylic acid hydroxyamide], in that order: 49% and 135 nM. With `CCCCCCCOc1ccc(-c2ccc(C(=O)OCCC#N)cc2)cc1` [Compound 39, 4′-Heptyloxy-biphenyl-4-carboxylic acid 2-cyano-ethyl ester], under setting [6], the “% Eff.” value worked out at 42%. The EC50 under setting [5] was 174 nM. `CCCCCCCCc1ccc(-c2ccc(C(=O)OCCc3ccccn3)cc2)cc1` [Compound 40] yielded a pEC50 (Table 2) of 6.75. Under setting [6], the “% Eff.” value was determined as 82%. Consider `CCCCCCOc1ccc(-c2ccc(C(=O)OCc3ccco3)cc2)cc1` [Compound 41, 4′-Hexyloxy-biphenyl-4-carboxylic acid furan-2-ylmethyl ester], for which, under setting [4], the Emax was found to be 25%. In addition, the EC50 under setting [5] is 178 nM. On to `CCCCCCCCOc1ccc(-c2ccc(C(=O)OCCC#N)cc2)cc1` [Compound 42, 4′-Octyloxy-biphenyl-4-carboxylic acid 2-cyano-ethyl ester], for which, under setting [4], the Emax stood at 46%. Besides, the EC50 under setting [5] was 195 nM. On the same counts, the results for `CCCCCCCCOc1ccc(-c2ccc(C(=O)OCc3ccco3)cc2)cc1` [Compound 43, 4′-Octyloxy-biphenyl-4-carboxylic acid furan-2-ylmethyl ester] are 67% and 214 nM. Regarding `CCCCOCCOc1cc(C)c(-c2ccc(C(=O)O)cc2)cc1C` [Compound 44, 4′-(2-Butoxyethoxy)-2′,5′-dimethyl[1,1-biphenyl]-4-carboxylic acid], under setting [2], the Emax amounted to 41%. The EC50 under setting [3] is 245 nM. Consider `CCCCCCCc1ccc(-c2ccc(C(=O)NN)cc2)cc1` [Compound 45, 4′-Heptyl-biphenyl-4-carboxylic acid hydrazide], for which the Emax under setting [2] is 78%. For the same compound, the EC50 under setting [3] was 257 nM.

The record behind these values is patent US20090176837A1, “COMPOUNDS WITH ACTIVITY AT RETINOIC ACID RECEPTORS” (SONY CORPORATION, priority 2006, published 2009).
